“And” between values parts separate entries of the source, which are not always exact repeats. Identical values can stand only once.

Data set [1] is described as follows: Liver microsomes stability and metabolite identification (LC-MS), human. The data set is classed as in vitro ADME. The text has this: The objective of this study is to analyze in vitro samples of Compound A and Compound B from rat and human microsomes using liquid chromatography quadrupole ion trap mass spectrometry and identify the nature of the metabolite(s) for each species.
The HPLC system consisted of a Thermo Surveror autosampler and a Thermo Surveyor MS pump (San Jose, Calif., USA). The LC-MS/MS system used was a Thermo LCQ Advantage (San Jose, Calif., USA). Data was acquired on a Dell Optiplex desktop computer (Round Rock, Tex., USA) equipped with operation system Windows XP professional. Data acquisition and analysis were performed using XCalibur 1.4 (San Jose, Calif., USA).
After the incubation period of the liver microsomes, the reaction was stopped with the addition of acetonitrile and frozen for transport. Before analysis, the samples were thawed at room temperature. They were vortexed vigorously and centrifuged at approximately 12000 g for 10 minutes. The supernatant was transferred into an injection vial for analysis.
A gradient mobile phase was used with a Thermo Phenyl 100×2 mm column with particle size of 5 μm. The initial mobile phase condition consisted of methanol and 0.1% formic acid solution at a ratio of 20:80, respectively. From 0 to 2 minutes, the ratio was maintained at 20:80. From 2 to 10 minutes, a linear gradient was applied and a ratio of 90:10 was maintained from 10 to 12 minutes. […] The flow rate was fixed at 0.25 mL/min.
The mass spectrometer was interfaced with the HPLC system using a pneumatic assisted electrospray ion source. The sheath gas was set to 15 units and the ESI electrode was set to 4000 V (positive mode). The capillary temperature was set at 300° C., and the capillary voltage was set to 13 V. The mass spectrometer was operating in full scan MS mode using one segment analysis (200-800).
A general note: Microsomes from liver hold many membrane-bound enzymes, among them those of drug oxidation.

Data set [2] deals with CFA-induced change in weight bearing in Sprague-Dawley rats. Put plainly: CFA model of chronic inflammatory pain, hindpaw weight bearing. The class given is in vivo, rat. Conditions: 24 h after CFA; 60 min after drug; Compound A 5, 10, 20 mg/kg i.p.; Compound H 10, 30, 60 mg/kg; morphine 3, 6, 10 mg/kg; n=7-8. The procedure:
Rats (body weight 260-300 g) were given a s.c. injection of CFA (50% in saline, 100 μl, Sigma) into the plantar surface of the hindpaw under brief halothane anaesthesia. After 24 h, they were then tested for hindpaw weight bearing responses, as assessed using an Incapacitance Tester (Linton Instrumentation, UK), (Zhu et al., 2005). The instrument incorporates a dual channel scale that separately measures the weight of the animal distributed to each hindpaw. While normal rats distribute their body weight equally between the two hindpaws (50-50), the discrepancy of weight distribution between an injured and non-injured paw is a natural reflection of the discomfort level in the injured paw (nocifensive behavior). The rats were placed in the plastic chamber designed so that each hindpaw rested on a separate transducer pad. […] For each rat, three readings from each paw were taken and then averaged. Side-to-side weight bearing difference was calculated as the average of the absolute value of the difference between two hindpaws from three trials (right paw reading-left paw reading).
Hindpaw weight bearing responses were measured in male Sprague-Dawley rats for 2-3 days prior to being given a hindpaw injection of CFA. Twenty-four hours later baseline responses were measured and rats were then administered Compound A (5, 10 and 20 mg/kg, i.p.), Compound H (10, 30 and 60 mg/kg) and morphine (3, 6 and 10 mg/kg). Weight bearing responses were then measured at 30, 60 and 120 min after drug or vehicle injection (data shown at 60 min.). […] All groups n=7-8.

Data set [3] in a line: Liver microsomes stability and metabolite identification (LC-MS), dog. The data set is classed as in vitro ADME.
[4] abbreviates: human microsomes 60 min (samples 14-16).
[5] abbreviates: dog microsomes 60 min (samples 23-25).

Regarding `COc1ccc(F)cc1-c1cc2c(c3c1CCN(C)C3)NC(=O)C2=NO` [Compound A, 5-(5-fluoro-2-methoxyphenyl)-6,7,8,9-tetrahydro-3-(hydroxyimino)-8-methyl-1H-pyrrolo[3,2-h]isoquinoline-2(3H)-one], the Total % metabolites worked out at 8.08% in data set [1] (% peak area relative to parent at T0, 60 min incubation, human microsomes) and 2.74% in data set [3] (% peak area relative to parent at T0, 60 min incubation, dog microsomes). Moreover, the “Compound A metabolite identification: m/z 342” value in data set [1] (setting [4]) is reported as “Yes”; in data set [3] (setting [5]) it was “weak”. Moreover, the “Compound A metabolite identification: m/z 356 (parent)” value in data set [1] (setting [4]) and in data set [3] (setting [5]) was “Yes” in each case. Also, the “Compound A metabolite identification: m/z 372” value in data set [1] (setting [4]) and in data set [3] (setting [5]) was “Yes” throughout. The “Compound A metabolite identification: m/z 412” value in data set [1] (setting [4]) and in data set [3] (setting [5]) was “no” each time. The “Calc. Conc.” value in data set [1] (human microsomes, time 0 min) is 4.91 µM and 6.54 µM; in data set [1] (human microsomes, time 60 min), 3.84 µM and 3.83 µM and 3.77 µM; in data set [3] (dog microsomes, time 0 min) it was 4.71 µM and 5.14 µM; in data set [3] (dog microsomes, time 60 min), 3.95 µM and 4.05 µM and 4.10 µM. Further, the “CFA-induced change in weight bearing compared with vehicle” value in data set [2] is “marked dose-dependent attenuation”.

These data come from US20090246134A1, “COMPOSITIONS AND METHODS FOR MODULATING GATED ION CHANNELS” (PainCeptor Pharma Corporation, priority 2007, published 2009).
